Experimental data published in publication PMC5218480 (PLoS ONE, 2017).

Test system: MV-4-11 cells
Assay: Gene expression microarray analysis (Affymetrix PrimeView) and GSEA
Assay type: cell-based, human
Parameters: RFU PODN (11730768_x_at) / Fold change /veh PODN (11730768_x_at) / RFU LINC00158 (11744669_a_at) / Fold change /veh LINC00158 (11744669_a_at) / RFU DUSP10 (11751237_a_at) / Fold change /veh DUSP10 (11751237_a_at) / RFU ID3 (11757404_x_at) / Fold change /veh ID3 (11757404_x_at) / RFU PLEKHG5 (11737974_s_at) / Fold change /veh PLEKHG5 (11737974_s_at) / RFU LRRC4B (11730491_at) / Fold change /veh LRRC4B (11730491_at) / RFU GIMAP4 (11747438_a_at) / Fold change /veh GIMAP4 (11747438_a_at) / RFU KRT8 (11758183_x_at) / Fold change /veh KRT8 (11758183_x_at) / RFU CNN1 (11734310_a_at) / Fold change /veh CNN1 (11734310_a_at) / RFU VPS37D (11726825_at) / Fold change /veh VPS37D (11726825_at) / RFU C10orf10 (11716522_x_at) / Fold change /veh C10orf10 (11716522_x_at) / RFU KIR2DL2 /// KIR2DL4 /// KIR2DL5A /// KIR2DL5B /// KIR2DS1 /// KIR2DS2 /// KIR2DS3 /// KIR2DS4 /// KIR3DL3 /// KIR3DL3 /// KIR3DS1 (11738374_at) / Fold change /veh KIR2DL2 /// KIR2DL4 /// KIR2DL5A /// KIR2DL5B /// KIR2DS1 /// KIR2DS2 /// KIR2DS3 /// KIR2DS4 /// KIR3DL3 /// KIR3DL3 /// KIR3DS1 (11738374_at) / RFU C1QL1 (11718748_at) / Fold change /veh C1QL1 (11718748_at) / RFU TMPRSS4 (11747572_a_at) / Fold change /veh TMPRSS4 (11747572_a_at) / RFU HAMP (11756126_x_at) / Fold change /veh HAMP (11756126_x_at) / RFU RNFT2 (11725882_a_at) / Fold change /veh RNFT2 (11725882_a_at) / RFU NR4A2 (11747474_a_at) / Fold change /veh NR4A2 (11747474_a_at) / RFU ABCC12 (11746883_a_at) / Fold change /veh ABCC12 (11746883_a_at) / RFU TMEM136 (11760407_x_at) / Fold change /veh TMEM136 (11760407_x_at) / RFU CLDN22 /// WWC2 (11732394_at) / Fold change /veh CLDN22 /// WWC2 (11732394_at) / RFU HLA-DPB1 (11760878_x_at) / Fold change /veh HLA-DPB1 (11760878_x_at) / RFU SPINT1 (11716480_a_at) / Fold change /veh SPINT1 (11716480_a_at) / RFU GAP43 (11754022_s_at) / Fold change /veh GAP43 (11754022_s_at) / RFU A4GNT (11735810_at) / Fold change /veh A4GNT (11735810_at) / RFU PRB3 (11715151_x_at) / Fold change /veh PRB3 (11715151_x_at) / RFU TUBB4B (11761932_at) / Fold change /veh TUBB4B (11761932_at) / RFU CAPN14 (11732068_a_at) / Fold change /veh CAPN14 (11732068_a_at) / RFU TMCC2 (11721928_a_at) / Fold change /veh TMCC2 (11721928_a_at) / RFU IRGQ (11745062_a_at) / Fold change /veh IRGQ (11745062_a_at) / RFU FAM174B (11720279_a_at) / Fold change /veh FAM174B (11720279_a_at) / RFU TMPRSS4 (11748680_a_at) / Fold change /veh TMPRSS4 (11748680_a_at) / RFU FAM212B (11763350_a_at) / Fold change /veh FAM212B (11763350_a_at) / RFU PLEKHG5 (11743358_a_at) / Fold change /veh PLEKHG5 (11743358_a_at) / RFU ZSCAN30 (11745921_a_at) / Fold change /veh ZSCAN30 (11745921_a_at) / RFU CMKLR1 (11741424_a_at) / Fold change /veh CMKLR1 (11741424_a_at) / RFU LOC101060620 /// MAPK8IP1 (11723275_at) / Fold change /veh LOC101060620 /// MAPK8IP1 (11723275_at) / RFU SPTSSB (11747773_x_at) / Fold change /veh SPTSSB (11747773_x_at) / RFU PRSS12 (11739890_at) / Fold change /veh PRSS12 (11739890_at) / RFU BIN1 (11741810_x_at) / Fold change /veh BIN1 (11741810_x_at) / RFU WNT11 (11732464_a_at) / Fold change /veh WNT11 (11732464_a_at) / RFU C10orf10 (11716521_a_at) / Fold change /veh C10orf10 (11716521_a_at) / RFU C5orf56 (11738089_at) / Fold change /veh C5orf56 (11738089_at) / RFU CYB561 (11721691_x_at) / Fold change /veh CYB561 (11721691_x_at) / RFU ANKRD19P (11752326_a_at) / Fold change /veh ANKRD19P (11752326_a_at) / RFU OR2T12 /// OR2T33 /// OR2T8 (11738714_s_at) / Fold change /veh OR2T12 /// OR2T33 /// OR2T8 (11738714_s_at) / RFU VCAN (11748164_a_at) / Fold change /veh VCAN (11748164_a_at) / RFU JSRP1 (11732532_at) / Fold change /veh JSRP1 (11732532_at) / RFU KRTAP10-11 (11738290_x_at) / Fold change /veh KRTAP10-11 (11738290_x_at) / RFU MYO3A (11730013_a_at) / Fold change /veh MYO3A (11730013_a_at) / RFU EBF3 (11725865_a_at) / Fold change /veh EBF3 (11725865_a_at) / RFU CAMK2N1 (11719241_x_at) / Fold change /veh CAMK2N1 (11719241_x_at) / RFU C5orf56 (11738088_a_at) / Fold change /veh C5orf56 (11738088_a_at) / RFU OLFML3 (11715873_a_at) / Fold change /veh OLFML3 (11715873_a_at) / RFU LOC100653217 /// NTM (11731650_a_at) / Fold change /veh LOC100653217 /// NTM (11731650_a_at) / RFU MAPK11 (11762145_a_at) / Fold change /veh MAPK11 (11762145_a_at) / RFU FIZ1 (11724087_x_at) / Fold change /veh FIZ1 (11724087_x_at) / RFU OASL (11726364_x_at) / Fold change /veh OASL (11726364_x_at) / RFU SOX15 (11748057_x_at) / Fold change /veh SOX15 (11748057_x_at) / RFU CD79A (11719716_a_at) / Fold change /veh CD79A (11719716_a_at) / RFU HIST1H1D (11736915_at) / Fold change /veh HIST1H1D (11736915_at) / RFU CASKIN2 (11723855_a_at) / Fold change /veh CASKIN2 (11723855_a_at) / RFU LOC730098 (11760151_x_at) / Fold change /veh LOC730098 (11760151_x_at) / RFU OR4N2 (11742367_at) / Fold change /veh OR4N2 (11742367_at) / RFU PRRT2 (11749266_a_at) / Fold change /veh PRRT2 (11749266_a_at) / RFU SNX32 (11753110_a_at) / Fold change /veh SNX32 (11753110_a_at) / RFU CDHR5 (11726645_a_at) / Fold change /veh CDHR5 (11726645_a_at) / RFU RCAN1 (11760418_a_at) / Fold change /veh RCAN1 (11760418_a_at) / RFU FAM167A (11723789_a_at) / Fold change /veh FAM167A (11723789_a_at) / RFU FAM26E (11764081_at) / Fold change /veh FAM26E (11764081_at) / RFU ISYNA1 (11749810_s_at) / Fold change /veh ISYNA1 (11749810_s_at) / RFU ACY1 (11761880_at) / Fold change /veh ACY1 (11761880_at) / RFU 11764098_at / Fold change /veh 11764098_at / RFU SAMD14 (11745864_x_at) / Fold change /veh SAMD14 (11745864_x_at) / RFU NPB (11741838_a_at) / Fold change /veh NPB (11741838_a_at) / RFU TMPRSS6 (11731388_a_at) / Fold change /veh TMPRSS6 (11731388_a_at) / RFU KRTAP10-2 (11738614_at) / Fold change /veh KRTAP10-2 (11738614_at) / RFU ARHGAP8 /// PRR5-ARHGAP8 (11727945_x_at) / Fold change /veh ARHGAP8 /// PRR5-ARHGAP8 (11727945_x_at) / RFU KRTAP5-7 /// NADSYN1 (11734609_at) / Fold change /veh KRTAP5-7 /// NADSYN1 (11734609_at) / RFU RASL12 (11751679_a_at) / Fold change /veh RASL12 (11751679_a_at) / RFU CDKN2B (11736163_a_at) / Fold change /veh CDKN2B (11736163_a_at) / RFU PRF1 (11729649_at) / Fold change /veh PRF1 (11729649_at) / RFU, ZNF638 /// ZNF638-IT1 / Fold change vs veh, ZNF638 /// ZNF638-IT1 / RFU, PANK3 / Fold change vs veh, PANK3 / RFU, SH3YL1 / Fold change vs veh, SH3YL1 / RFU, ZEB2 / Fold change vs veh, ZEB2 / RFU, NRIP1 / Fold change vs veh, NRIP1 / RFU, PTTG1IP / Fold change vs veh, PTTG1IP / RFU, CAPN2 / Fold change vs veh, CAPN2 / RFU, MED14 / Fold change vs veh, MED14 / RFU, SNORA58 / Fold change vs veh, SNORA58 / RFU, C1orf63 / Fold change vs veh, C1orf63 / RFU, LRRFIP1 / Fold change vs veh, LRRFIP1 / RFU, NDUFAF7 / Fold change vs veh, NDUFAF7 / RFU, SLC12A2 / Fold change vs veh, SLC12A2 / RFU, IBTK / Fold change vs veh, IBTK / RFU, ESF1 / Fold change vs veh, ESF1 / Fold change vs veh, TMEM50B / RFU, TAOK1 / Fold change vs veh, TAOK1 / RFU, ACBD3 / Fold change vs veh, ACBD3 / RFU, TMA16 / Fold change vs veh, TMA16 / RFU, RWDD3 / Fold change vs veh, RWDD3 / RFU, BCAT1 / Fold change vs veh, BCAT1 / RFU, EDEM3 / Fold change vs veh, EDEM3 / RFU, TMEM33 / Fold change vs veh, TMEM33 / RFU, WDR75 / Fold change vs veh, WDR75 / RFU, AHCTF1 / Fold change vs veh, AHCTF1 / RFU, TFRC / Fold change vs veh, TFRC / RFU, ZDHHC17 / Fold change vs veh, ZDHHC17 / RFU, NOM1 / Fold change vs veh, NOM1 / RFU, ARL8B / Fold change vs veh, ARL8B / RFU, ZBTB11 / Fold change vs veh, ZBTB11 / RFU, TAMM41 / Fold change vs veh, TAMM41 / RFU, KIAA1704 /// LOC100996395 / Fold change vs veh, KIAA1704 /// LOC100996395 / RFU, ING1 / Fold change vs veh, ING1 / RFU, TRMT61B / Fold change vs veh, TRMT61B / RFU, FUBP3 / Fold change vs veh, FUBP3 / RFU, TP53 / Fold change vs veh, TP53 / RFU, TNKS2 / Fold change vs veh, TNKS2 / RFU, ZFP14 / Fold change vs veh, ZFP14 / RFU, ACTR2 / Fold change vs veh, ACTR2 / RFU, PPP3R1 / Fold change vs veh, PPP3R1 / RFU, PIK3R1 / Fold change vs veh, PIK3R1 / RFU, HNRNPA1 / Fold change vs veh, HNRNPA1 / RFU, RNF170 / Fold change vs veh, RNF170 / RFU, ZNF28 / Fold change vs veh, ZNF28 / RFU, RNGTT / Fold change vs veh, RNGTT / RFU, OGT / Fold change vs veh, OGT / RFU, BRD1 / Fold change vs veh, BRD1 / RFU, MARS / Fold change vs veh, MARS / RFU, ZNF655 / Fold change vs veh, ZNF655 / RFU, FAHD1 / Fold change vs veh, FAHD1 / RFU, BDP1 / Fold change vs veh, BDP1 / RFU, LRRCC1 / Fold change vs veh, LRRCC1 / RFU, ARID1A / Fold change vs veh, ARID1A / RFU, ZNF146 / Fold change vs veh, ZNF146 / RFU, ZNF330 / Fold change vs veh, ZNF330 / RFU, GPN3 / Fold change vs veh, GPN3 / RFU, C9orf123 / Fold change vs veh, C9orf123 / RFU, N4BP2L2 / Fold change vs veh, N4BP2L2 / RFU, ARFIP1 / Fold change vs veh, ARFIP1 / RFU, FAM179B / Fold change vs veh, FAM179B / RFU, BCL10 / Fold change vs veh, BCL10 / RFU, UHRF1BP1L / Fold change vs veh, UHRF1BP1L / RFU, BET1 / Fold change vs veh, BET1 / RFU, CNOT2 / Fold change vs veh, CNOT2 / RFU, ZNF268 / Fold change vs veh, ZNF268 / Fold change vs veh, ZNF507 / RFU, DGCR2 / Fold change vs veh, DGCR2 / RFU, WDSUB1 / Fold change vs veh, WDSUB1 / Fold change vs veh, HSP90B1 /// MIR3652 / RFU, ADSS / Fold change vs veh, ADSS / RFU, GK / Fold change vs veh, GK / RFU, ZNF148 / Fold change vs veh, ZNF148 / RFU, TAF9 / Fold change vs veh, TAF9 / RFU, SLC1A5 / Fold change vs veh, SLC1A5 / RFU, SLMO2 / Fold change vs veh, SLMO2 / RFU, ABCC4 / Fold change vs veh, ABCC4 / RFU, LOC101060439 /// RAP1B / Fold change vs veh, LOC101060439 /// RAP1B / RFU, RFX7 / Fold change vs veh, RFX7 / RFU, GTPBP10 / Fold change vs veh, GTPBP10 / RFU, CNEP1R1 / Fold change vs veh, CNEP1R1 / RFU, BIVM-ERCC5 /// ERCC5 / Fold change vs veh, BIVM-ERCC5 /// ERCC5 / RFU, ILF3 / Fold change vs veh, ILF3 / RFU 11762660_at / Fold change /veh 11762660_at / RFU VCAN (11757783_s_at) / Fold change /veh VCAN (11757783_s_at) / RFU DDX43 (11728927_at) / Fold change /veh DDX43 (11728927_at) / RFU KRT8 (11758188_x_at) / Fold change /veh KRT8 (11758188_x_at) / RFU NKD1 (11759106_at) / Fold change /veh NKD1 (11759106_at) / RFU SRD5A1 (11742802_a_at) / Fold change /veh SRD5A1 (11742802_a_at) / RFU TPSAB1 /// TPSB2 (11721975_s_at) / Fold change /veh TPSAB1 /// TPSB2 (11721975_s_at) / RFU GSTM3 (11746129_a_at) / Fold change /veh GSTM3 (11746129_a_at) / RFU IL23R (11737362_x_at) / Fold change /veh IL23R (11737362_x_at) / RFU TMEM51 (11727254_a_at) / Fold change /veh TMEM51 (11727254_a_at) / RFU PIWIL2 (11732686_x_at) / Fold change /veh PIWIL2 (11732686_x_at) / RFU ORM1 (11744905_x_at) / Fold change /veh ORM1 (11744905_x_at) / RFU CCDC152 (11743942_at) / Fold change /veh CCDC152 (11743942_at) / RFU ECM1 (11717891_a_at) / Fold change /veh ECM1 (11717891_a_at) / RFU IL23R (11748794_a_at) / Fold change /veh IL23R (11748794_a_at) / RFU TNFAIP8L3 (11732012_x_at) / Fold change /veh TNFAIP8L3 (11732012_x_at) / RFU MBOAT4 (11741988_at) / Fold change /veh MBOAT4 (11741988_at) / RFU 11764193_at / Fold change /veh 11764193_at / RFU TMEM53 (11763286_at) / Fold change /veh TMEM53 (11763286_at) / RFU MAGEB2 (11727129_at) / Fold change /veh MAGEB2 (11727129_at) / RFU TMEM200A (11744735_a_at) / Fold change /veh TMEM200A (11744735_a_at) / RFU CCDC152 (11751479_a_at) / Fold change /veh CCDC152 (11751479_a_at) / RFU FAM211A (11726209_a_at) / Fold change /veh FAM211A (11726209_a_at) / RFU RGS16 (11746705_a_at) / Fold change /veh RGS16 (11746705_a_at) / RFU VCAN (11755009_s_at) / Fold change /veh VCAN (11755009_s_at) / RFU RHOB (11743442_s_at) / Fold change /veh RHOB (11743442_s_at) / RFU RGS16 (11720943_a_at) / Fold change /veh RGS16 (11720943_a_at) / RFU RGS16 (11720944_at) / Fold change /veh RGS16 (11720944_at) / RFU, VPS4B / Fold change vs veh, VPS4B / RFU, CREB1 / Fold change vs veh, CREB1 / RFU, DNAJC13 / Fold change vs veh, DNAJC13 / RFU, GNAQ / Fold change vs veh, GNAQ / RFU, CDK5R1 / Fold change vs veh, CDK5R1 / RFU, ZRANB3 / Fold change vs veh, ZRANB3 / RFU, CUL4A / Fold change vs veh, CUL4A / RFU, CCNY / Fold change vs veh, CCNY / RFU, UFL1 / Fold change vs veh, UFL1 / RFU, COG3 / Fold change vs veh, COG3 / RFU, DIAPH2 / Fold change vs veh, DIAPH2 / RFU, SKA2 / Fold change vs veh, SKA2 / RFU, AFF3 / Fold change vs veh, AFF3 / RFU, LMF1 / Fold change vs veh, LMF1 / RFU, IPO11 / Fold change vs veh, IPO11 / RFU, DFFB / Fold change vs veh, DFFB / RFU, FOXP1 / Fold change vs veh, FOXP1 / RFU, CARD8 / Fold change vs veh, CARD8 / RFU, STRN3 / Fold change vs veh, STRN3 / RFU, ADK / Fold change vs veh, ADK / RFU, RASSF2 / Fold change vs veh, RASSF2 / RFU, WIPF1 / Fold change vs veh, WIPF1 / RFU, LARP1B / Fold change vs veh, LARP1B / RFU, RASA1 / Fold change vs veh, RASA1 / RFU, RB1 / Fold change vs veh, RB1 / RFU, PPFIA1 / Fold change vs veh, PPFIA1 / RFU, MAT2A / Fold change vs veh, MAT2A / RFU, CCT5 / Fold change vs veh, CCT5 / RFU, WDR92 / Fold change vs veh, WDR92 / RFU, CUX1 / Fold change vs veh, CUX1 / RFU, TTC7A / Fold change vs veh, TTC7A / RFU, TMEM135 / Fold change vs veh, TMEM135 / RFU, DEPTOR / Fold change vs veh, DEPTOR / RFU, CPM / Fold change vs veh, CPM / RFU, DNAJB6 / Fold change vs veh, DNAJB6 / RFU, CACNA2D3 / Fold change vs veh, CACNA2D3 / RFU, DTX4 / Fold change vs veh, DTX4 / RFU, TFCP2 / Fold change vs veh, TFCP2 / RFU, GMCL1 /// GMCL1P1 / Fold change vs veh, GMCL1 /// GMCL1P1 / RFU, AEBP2 / Fold change vs veh, AEBP2 / RFU, SNHG1 /// SNORD22 /// SNORD25 /// SNORD26 /// SNORD27 /// SNORD28 /// SNORD29 /// SNORD31 / Fold change vs veh, SNHG1 /// SNORD22 /// SNORD25 /// SNORD26 /// SNORD27 /// SNORD28 /// SNORD29 /// SNORD31 / Fold change (Aza/veh), C12orf56 (ProbeSet 11735607_a_at) / Fold change (ACY-1035/veh), C12orf56 (ProbeSet 11735607_a_at) / Fold change (Aza/veh), FGFR1OP (ProbeSet 11751329_s_at) / Fold change (ACY-1035/veh), FGFR1OP (ProbeSet 11751329_s_at) / Fold change (Aza/veh), VPS36 (ProbeSet 11739960_a_at) / Fold change (ACY-1035/veh), VPS36 (ProbeSet 11739960_a_at) / RFU SYPL1 (11715823_x_at) / Fold change /veh SYPL1 (11715823_x_at) / RFU IGFBP7 (11715501_s_at) / Fold change /veh IGFBP7 (11715501_s_at) / RFU REEP3 (11722064_at) / Fold change /veh REEP3 (11722064_at) / RFU IGLL1 (11728026_x_at) / Fold change /veh IGLL1 (11728026_x_at): dose or concentration left out as unconfirmed
Conditions: ProbeSet 11720154_at; LIST B

Nc1ncn([C@@H]2O[C@H](CO)[C@@H](O)[C@H]2O)c(=O)n1 [azacitidine]
Fold change vs veh, NRIP1: 0.86
